Reference: patent EP0188647B1, “Acylated derivatives of cytidine-diphosphate-choline, process for their preparation and their therapeutic use” (NEOPHARMED S.p.A., priority 1985, dated 1986)

[1] = control experiment, oral, 20 µmoles/kg, after 30 minutes, intestinal level

Description: The required data refer to the distribution of radioactivity in the animal and also to structural identity of the radioactive molecular species present in some of the more significant biological samples (liver, brain, faeces, gastric and intestinal contents).
The scheme of extraction consents the recovery of three different classes of labelled metabolites: • 1) Hydrosoluble metabolites, subsequently analysed by HPLC. • 2) Metabolites with high molecular weights, proteins and nucleic acids, recovered by thermal denaturation in a hydroalcoholic environment. • 3) Lipids, subsequently purified by chromatography on silica.

| time of maximum uptake in the plasmatic component and in the organs (rat, in vivo, po) [h] | total radioactivity, of that present in the administered dose (rat, in vivo, po) [%] | SMILES | double labelled CDP-choline administered found at intestinal level [1] [%] | radioactivity present in the dose found at intestinal level [1] |
| --- | --- | --- | --- | --- |
|  |  | C[N+](C)(C)CCOP(=O)(O)OP(=O)([O-])OC[C@H]1O[C@@H](n2ccc(N)nc2=O)[C@H](O)[C@@H]1O [CDP-choline, Cytidine-diphosphate-choline] | 0.2 | not more than 5% |
| 5 | 30 | CCCCC(=O)Nc1ccn([C@@H]2O[C@H](COP(=O)(O)OP(=O)([O-])OCC[N+](C)(C)C)[C@@H](OC(=O)CCCC)[C@H]2OC(=O)CCCC)c(=O)n1 [trivaleryl-CDP-choline, N4-valeryl-2',3'-di-O-valeryl-CDP-choline] |  |  |
